Results: patent US10760052B2, “Method of inhibiting tau phosphorylation” (priority 2012, dated 2020)
Read-outs that look alike come from different tables or passages of the source.

Target: T1, mu opiate receptor (MOR) (Rattus norvegicus, UniProt P33535)
T1 construct: from tissue; host or cells: striatum (membrane preparation)
Type: biochemical
Settings: for MOR agonist activity ([35S]GTPγS binding), compound as agonist: preliminary study, average of two runs; for Concentration of FLNA-Binding Compound as Agonist 0.1 μM / Concentration of FLNA-Binding Compound as Agonist 1 μM / Concentration of FLNA-Binding Compound as Agonist 1 μM + BFNA: [35S]GTPγS binding to Gαo in striatal membranes; for Concentration of FLNA-Binding Compound as Agonist 0.1 μM: compound 0.1 μM; for Concentration of FLNA-Binding Compound as Agonist 1 μM: compound 1 μM; for Concentration of FLNA-Binding Compound as Agonist 1 μM + BFNA: compound 1 μM plus 1 μM β-funaltrexamine (MOR antagonist)

[1] = 0.1 μM compound, striatal membranes, Series C-2
[2] = 1 μM compound + 1 μM β-FNA (selective MOR antagonist), Series C-2
[3] = 1 μM compound, striatal membranes, Series C-2

T1 sequence (P33535 whole entry): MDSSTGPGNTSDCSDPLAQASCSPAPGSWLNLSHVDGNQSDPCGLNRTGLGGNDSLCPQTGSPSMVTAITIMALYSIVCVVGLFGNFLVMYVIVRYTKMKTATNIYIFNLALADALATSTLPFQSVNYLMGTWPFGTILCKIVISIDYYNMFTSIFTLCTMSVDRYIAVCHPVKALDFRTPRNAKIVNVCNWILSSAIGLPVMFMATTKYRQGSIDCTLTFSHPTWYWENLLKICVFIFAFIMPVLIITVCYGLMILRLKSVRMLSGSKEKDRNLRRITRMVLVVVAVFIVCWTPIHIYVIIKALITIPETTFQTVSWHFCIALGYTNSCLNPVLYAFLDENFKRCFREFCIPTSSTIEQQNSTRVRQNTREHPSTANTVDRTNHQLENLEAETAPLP

Compound | % DAMGO (0.1 μM) | % DAMGO (1 μM) | % DAMGO + BFNA | [35S]GTPγS binding, FLNA-Binding Compound as Agonist at 0.1 μM [1] | [35S]GTPγS binding, FLNA-Binding Compound as Agonist at 1 μM + BFNA [2] | [35S]GTPγS binding, FLNA-Binding Compound as Agonist at 1 μM [3] | [35S]GTPγS binding, FLNA-Binding Compound as Agonist at 0.1 μM | [35S]GTPγS binding, FLNA-Binding Compound as Agonist at 1 μM | [35S]GTPγS binding, FLNA-Binding Compound as Agonist at 1 μM + BFNA | MOR agonist activity ([35S]GTPγS binding), compound as agonist (0.1 μM) | MOR agonist activity ([35S]GTPγS binding), compound as agonist (1 μM + βNFA) | MOR agonist activity ([35S]GTPγS binding), compound as agonist (1 μM) | Concentration of FLNA-Binding Compound as Agonist 0.1 μM | Concentration of FLNA-Binding Compound as Agonist 1 μM | Concentration of FLNA-Binding Compound as Agonist 1 μM + BFNA
C=CCN1CCC2(CC1)OCCN2S(=O)(=O)c1ccc(OC)cc1 [Compound C0091M] | 118.1% | 108.5% | 367.3% | 207.9% | 80.8% | 274.4% |  |  |  |  |  |  |  |  | 
CC(=O)c1ccc(S(=O)(=O)N2CCOC23CCN(C)CC3)cc1 [Compound C0093M] | 81.3% | 96.4% | 127.5% | 140.0% | 44.0% | 211.8% |  |  |  |  |  |  |  |  | 
CCN1CCC2(CC1)OCCN2S(=O)(=O)c1ccc(C(C)=O)cc1 [Compound C0094M] | 100.2% | 119.9% | 334.2% | 172.5% | 115.3% | 263.5% |  |  |  |  |  |  |  |  | 
CC(=O)c1ccc(S(=O)(=O)N2CCOC23CCN(CC2CC2)CC3)cc1 [Compound C0095M] | 107.4% | 88.8% | 489.5% | 189.1% | 107.7% | 224.6% |  |  |  |  |  |  |  |  | 
C=CCN1CCC2(CC1)OCCN2S(=O)(=O)c1ccc(C(C)=O)cc1 [Compound C0096M] | 105.9% | 130.0% | 577.7% | 186.4% | 127.1% | 328.9% |  |  |  |  |  |  |  |  | 
CCOC(=O)CN1CCC2(CC1)OCCN2S(=O)(=O)c1ccc(C(C)=O)cc1 [Compound C0099M] | 93.8% | 88.0% | 241.5% | 157.2% | 114.7% | 195.7% |  |  |  |  |  |  |  |  | 
CC(=O)c1ccc(S(=O)(=O)N2CCOC23CCN(CC(=O)O)CC3)cc1 [Compound C0100M] | 103.6% | 110.6% | 411.8% | 173.6% | 195.6% | 245.9% |  |  |  |  |  |  |  |  | 
CCCCN1CCC2(CC1)OCCN2S(=O)(=O)c1ccc(C(C)=O)cc1 [Compound C0101M] | 82.5% | 123.4% | 368.0% | 138.2% | 174.8% | 274.3% |  |  |  |  |  |  |  |  | 
CCCCN1CCC2(CC1)OCCN2S(=O)(=O)c1ccc(OC)cc1 [Compound C0102M] | 78.6% | 122.4% | 316.6% | 131.8% | 150.4% | 272.0% |  |  |  |  |  |  |  |  | 
CN1CCC2(CC1)NC(=O)CN2Cc1ccccc1 [Compound C0104M] | 99.5% | 96.3% | 296.5% | 188.2% | 143.8% | 238.9% |  |  |  |  |  |  |  |  | 
CN1CCC2(CC1)NCC(=O)N2Cc1ccccc1 [Compound C0105M] | 104.7% | 88.8% | 150.7% | 198.1% | 73.1% | 220.3% |  |  |  |  |  |  |  |  | 
CN1CCC2(CC1)OCCN2S(=O)(=O)c1ccc(S(C)(=O)=O)cc1 [Compound C0106M] | 102.5% | 108.3% | 246.7% | 171.8% | 117.2% | 240.7% |  |  |  |  |  |  |  |  | 
CC(=O)c1ccc(S(=O)(=O)N2CC(CN(C)C)OC23CCN(C)CC3)cc1 (stereo not drawn) [Compound C0108M] | 108.7% | 104.1% | 158.6% | 205.6% | 76.9% | 258.5% |  |  |  |  |  |  |  |  | 
O=C1CNC2(CCNCC2)N1Cc1ccccc1 [Compound C0114M] | 77.6% | 71.4% | 91.3% |  |  |  | 114.0% | 144.3% | 35.9% |  |  |  |  |  | 
O=C1CN(Cc2ccccc2)C2(CCNCC2)N1 [Compound C0115M] | 105.7% | 102.0% | 249.3% |  |  |  | 177.2% | 226.8% | 118.4% |  |  |  |  |  | 
CS(=O)(=O)c1ccc(S(=O)(=O)N2CCOC23CCNCC3)cc1 [Compound C0116M] | 136.6% | 122.0% | 313.4% |  |  |  | 258.4% | 302.8% | 152.0% |  |  |  |  |  | 
CC(=O)c1ccc(S(=O)(=O)N2CC(CN(C)C)OC23CCNCC3)cc1 (stereo not drawn) [Compound C0118M] | 87.8% | 105.4% | 163.3% |  |  |  | 166.2% | 261.5% | 79.2% |  |  |  |  |  | 
CC(=O)c1ccc(S(=O)(=O)N2C(Cc3c[nH]cn3)C(=O)NC23CCNCC3)cc1 (stereo not drawn) [Compound C0119M] | 71.9% | 83.0% | 89.3% |  |  |  | 105.7% | 167.8% | 35.1% |  |  |  |  |  | 
O=C1CN(Cc2ccccc2)C2(CCN(CC3CC3)CC2)N1 [Compound C0125M] | 89.1% | 78.6% | 329.3% | 168.6% | 159.7% | 195.2% |  |  |  |  |  |  |  |  | 
CS(=O)(=O)c1ccc(S(=O)(=O)N2CCOC23CCN(CC2CC2)CC3)cc1 [Compound C0126M] | 108.5% | 119.3% | 228.4% | 181.8% | 108.5% | 265.3% |  |  |  |  |  |  |  |  | 
CC(=O)c1ccc(S(=O)(=O)N2CC(CN(C)C)OC23CCN(CC2CC2)CC3)cc1 (stereo not drawn) [Compound C0128M] | 104.5% | 115.2% | 131.8% | 197.8% | 63.9% | 286.0% |  |  |  |  |  |  |  |  | 
COc1ccc(S(=O)(=O)N2CCOC23CCN(C(C)C)CC3)cc1 [Compound C0133M] | 83.2% | 96.6% | 152.4% | 139.4% | 72.4% | 214.8% |  |  |  |  |  |  |  |  | 
Cc1ccc(S(=O)(=O)N2CCOC23CCN(CC2CC2)CC3)cc1 [Compound C0134M] |  |  |  |  |  |  |  |  |  | 150.7% | 53.2% | 224.0% |  |  | 
CCc1ccc(S(=O)(=O)N2CCOC23CCN(CC2CC2)CC3)cc1 [Compound C0135M] | 85.3% | 124.9% | 233.6% |  |  |  | 161.3% | 310.1% | 113.3% |  |  |  |  |  | 
O=C1CN(Cc2ccccc2)C2(CCN(S(=O)(=O)c3cc(Cl)cc(Cl)c3O)CC2)N1 [Compound C0138M] | 86.3% | 90.9% | 131.0% |  |  |  |  |  |  |  |  |  | 126.9% | 183.9% | 51.5%
O=C1CN(Cc2ccccc2)C2(CCN(S(=O)(=O)c3cc(Cl)c(O)c(Cl)c3)CC2)N1 [Compound C0139M] | 106.2% | 102.2% | 129.8% |  |  |  |  |  |  |  |  |  | 156.1% | 206.6% | 51.0%
O=S(=O)(c1ccc2ccccc2c1)N1CCC2(CC1)OCCN2S(=O)(=O)c1ccc2ccccc2c1 [Compound C0140M] | 85.8% | 106.5% | 211.2% |  |  |  |  |  |  |  |  |  | 126.1% | 215.4% | 83.0%
